system: IL-4 induced STAT6 phosphorylation in THP-1 human monocytic cells; details: THP-1 cells

Row | SMILES | THP-1 IL4 pIC50
1 | Cc1cc(Nc2cc3ncc(S(C)(=O)=O)cc3c(N[C@@H]3C[C@H]4CC[C@@H](C3)N4CCC#N)n2)n[nH]1 [Example 6-50] | C (C represents a pEC50 value <6.7 (EC50>200 nM))
2 | Cc1cc(Nc2cc3ncc(S(C)(=O)=O)cc3c(N[C@@H]3C[C@H]4CC[C@@H](C3)N4C(=O)CC#N)n2)n[nH]1 [Example 6-51] | C (C represents a pEC50 value <6.7 (EC50>200 nM))
3 | Cc1cc(Nc2cc3ncc(S(C)(=O)=O)cc3c(N[C@@H]3C[C@H]4CC[C@@H](C3)N4CCF)n2)n[nH]1 [Example 6-54] | C (C represents a pEC50 value <6.7 (EC50>200 nM))
4 | Cc1cc(Nc2cc3ncc(S(C)(=O)=O)cc3c(N[C@@H]3C[C@H]4CC[C@@H](C3)N4CCCF)n2)n[nH]1 [Example 6-55] | C (C represents a pEC50 value <6.7 (EC50>200 nM))
5 | Cc1cc(Nc2cc3ncc(S(C)(=O)=O)cc3c(N[C@@H]3C[C@H]4CC[C@@H](C3)N4[C@@H]3CCOC3=O)n2)n[nH]1 [Example 6-57] | C (C represents a pEC50 value <6.7 (EC50>200 nM))
6 | Cc1cc(Nc2cc3ncc(S(C)(=O)=O)cc3c(N[C@@H]3C[C@H]4CC[C@@H](C3)N4[C@@H]3CCOC3=O)n2)n[nH]1 [Example 6-58] | C (C represents a pEC50 value <6.7 (EC50>200 nM))
7 | COc1ccnc2cc(Nc3cc(C)[nH]n3)nc(N[C@@H]3C[C@H]4CC[C@@H](C3)N4C(=O)CN(C)C)c12 [Example 7-3] | C (C represents a pEC50 value <6.7 (EC50>200 nM))
8 | COc1ccnc2cc(Nc3cc(C)[nH]n3)nc(N[C@@H]3C[C@H]4CC[C@@H](C3)N4CCC#N)c12 [Example 7-6] | A (A represents a pEC50 value ≥7.5 (EC50≤32 nM))
9 | CCS(=O)(=O)N1[C@@H]2CC[C@H]1C[C@H](Nc1nc(Nc3cc(C)[nH]n3)c(F)c3ncccc13)C2 [Example 8-3] | A (A represents a pEC50 value ≥7.5 (EC50≤32 nM))
10 | Cc1cc(Nc2nc(N[C@@H]3C[C@H]4CC[C@@H](C3)N4C(=O)CN(C)C)c3cccnc3c2F)n[nH]1 [Example 8-7] | C (C represents a pEC50 value <6.7 (EC50>200 nM))
11 | Cc1cc(Nc2nc(NC3CC4CCC(C3)N4C(=O)C(C)O)c3cccnc3c2F)n[nH]1 (stereo not shown) [Example 8-8] | C (C represents a pEC50 value <6.7 (EC50>200 nM))
12 | Cc1cc(Nc2nc(N[C@@H]3C[C@H]4CCC[C@@H](C3)N4C(=O)CN(C)C)c3cccnc3c2F)n[nH]1 [Example 8-15] | C (C represents a pEC50 value <6.7 (EC50>200 nM))
13 | Cc1cnc2c(F)c(Nc3cc(C)[nH]n3)nc(N[C@@H]3C[C@H]4CC[C@@H](C3)N4S(=O)(=O)N3CC(C#N)C3)c2c1 [Example 8-19] | C (C represents a pEC50 value <6.7 (EC50>200 nM))
14 | Cc1cnc2c(F)c(Nc3cc(C)[nH]n3)nc(N[C@@H]3C[C@H]4CC[C@@H](C3)N4S(=O)(=O)c3cccnc3)c2c1 [Example 8-20] | C (C represents a pEC50 value <6.7 (EC50>200 nM))

system: IL-13 induced STAT6 phosphorylation in BEAS-2B human lung epithelial cells; details: BEAS-2B cells

Row | SMILES | BEAS2B pIC50
15 | CCC(CC#N)N1[C@@H]2CC[C@H]1C[C@H](Nc1nc(Nc3cc(C)[nH]n3)cc3ncccc13)C2 (stereo partly shown) [Example 1-22] | A (A represents a pEC50 value ≥7.5 (EC50≤32 nM))
16 | Cc1cc(Nc2cc3ncccc3c(N[C@@H]3C[C@H]4CC[C@@H](C3)N4C(=O)C(C)F)n2)n[nH]1 (stereo partly shown) [Example 2-3] | A (A represents a pEC50 value ≥7.5 (EC50≤32 nM))
17 | Cc1cc(Nc2cc3ncccc3c(N[C@@H]3C[C@H]4CCC[C@@H](C3)N4C(=O)c3cncc(C#N)c3)n2)n[nH]1 [Example 2-26] | C (C represents a pEC50 value <6.7 (EC50>200 nM))
18 | Cc1cc(Nc2cc3ncccc3c(N[C@@H]3C[C@H]4CCC[C@@H](C3)N4C(=O)c3ccc(C#N)nc3)n2)n[nH]1 [Example 2-28] | C (C represents a pEC50 value <6.7 (EC50>200 nM))
19 | Cc1cc(Nc2cc3ncccc3c(N[C@@H]3C[C@H]4CCC[C@@H](C3)N4C(=O)c3ccnc(C#N)c3)n2)n[nH]1 [Example 2-30] | C (C represents a pEC50 value <6.7 (EC50>200 nM))
